Results as given in patent publication US20050261332A1, “Sulfonamides and uses thereof” (priority 2004, published 2005).

Target: T1, GHS-R (Homo sapiens, UniProt Q92847)
T1 construct: expressed in transfected cells; host or cells: COS-7 cells
Assay: GHS-R competition binding assay (Ki of GHS-R antagonizing compounds)
Description: One exemplary binding assay is as follows: GHS-R expressing COS-7 cells cultured at a density of 1×10^5 cells per well so that binding is assayed in the range of about 5-8 % binding of the radioactive ligand. For example, the cells can express an endogenous nucleic acid encoding GHS-R or an exogenous nucleic acid encoding GHS-R. Cells transfected with an exogenous nucleic acid encoding GHS-R can be used, e.g., two days, after transfection. Competition binding experiments are performed for 3 hours at 4° C. using 25 pM of ^125I-ghrelin in 0.5 ml of 50 mM HEPES buffer, pH 7.4, supplemented with 1 mM CaCl2, 5 mM MgCl2, and 0.1% (w/v) bovine serum albumin, 40 mg/ml bacitracin. Non-specific binding can be determined as the binding in the presence of […] of unlabeled ghrelin. Cells are washed twice in 0.5 ml of ice-cold buffer and then lysed with 0.5-1 ml of lysis buffer (8 M Urea, 2% NP40 in 3 M acetic acid). After washing and lysis, the bound radioactivity is counted. Assays can be run in duplicate or triplicate, e.g., to provide statistical power.
Values of the dissociation and inhibition constants (Kd and Ki) can be estimated from competition binding experiments using the equation: Kd=IC50-L and Ki=IC50/(1+L/Kd), where L is the concentration of radioactive ligand. Bmax values can be estimated from competition binding experiments using the equation Bmax=B0 IC50/[ligand], where B0 is the specifically bound radioligand.

T1 sequence (Q92847 whole entry, species assumed): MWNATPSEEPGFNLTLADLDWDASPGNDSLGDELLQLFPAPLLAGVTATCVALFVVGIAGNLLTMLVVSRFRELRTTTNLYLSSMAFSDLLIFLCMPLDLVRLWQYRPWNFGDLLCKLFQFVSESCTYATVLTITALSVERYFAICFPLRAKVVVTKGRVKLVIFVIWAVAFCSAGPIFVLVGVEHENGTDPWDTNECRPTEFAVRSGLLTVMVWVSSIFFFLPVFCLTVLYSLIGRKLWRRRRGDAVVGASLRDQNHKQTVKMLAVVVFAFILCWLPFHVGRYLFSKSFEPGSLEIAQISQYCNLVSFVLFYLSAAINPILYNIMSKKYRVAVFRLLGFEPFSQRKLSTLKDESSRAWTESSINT

SMILES	Ki
CCN(CC)CCCS(=O)(=O)N[C@H](CCc1ccccc1)C(=O)NCc1ccc(-c2ccccc2CC(=O)NC)cc1 [Compound 181, (R)-2-(3-(diethylamino)propylsulfonamido)-N-((2′-(2-(methylamino)-2-oxoethyl)biphenyl-4-yl)methyl)-4-phenylbutanamide]	100 to 1000 nM
CCN(CC)CCCS(=O)(=O)N[C@H](CCc1ccccc1)C(=O)NCc1ccc(-c2ccccc2CNC(=O)OC(C)(C)C)cc1 [Compound 182, (R)-(4′-{[2-(3-Diethylamino-propane-1-sulfonylamino)-4-phenyl-butyrylamino]-methyl}-biphenyl-2-ylmethyl)-carbamic acid tert-butyl ester]	100 to 1000 nM
CCN(CC)CCCS(=O)(=O)N[C@H](CCc1ccccc1)C(=O)c1ccc(-c2ccccc2C(=O)O)cc1 [Compound 183, (R)-4′-(2-(3-(diethylamino)propylsulfonamido)-4-phenylbutanoyl)biphenyl-2-carboxylic acid]	100 to 1000 nM
CCOC(=O)c1ccccc1-c1ccc(C(=O)[C@@H](CCc2ccccc2)NS(=O)(=O)CCCN(CC)CC)cc1 [Compound 184, (R)-ethyl 4′-(2-(3-(diethylamino)propylsulfonamido)-4-phenylbutanoyl)biphenyl-2-carboxylate]	> 1000 nM
CCN(CC)CCCS(=O)(=O)N[C@H](CCc1ccccc1)C(=O)c1ccc(-c2ccccc2C(=O)NC)cc1 [Compound 186, (R)-4′-(2-(3-(diethylamino)propylsulfonamido)-4-phenylbutanoyl)-N-methylbiphenyl-2-carboxamide]	100 to 1000 nM
CCN(CC)CCCS(=O)(=O)N[C@H](CCc1ccccc1)C(=O)NCc1ccc(-c2ccccc2CNC(=O)NC)cc1 [Compound 187, (R)-2-(3-(diethylamino)propylsulfonamido)-N-((2′-((3-methylureido)methyl)biphenyl-4-yl)methyl)-4-phenylbutanamide]	100 to 1000 nM
CCN(CC)CCCS(=O)(=O)N[C@H](CCc1ccccc1)C(=O)c1ccc(-c2ccccc2CNC(=O)OC(C)(C)C)cc1 [Compound 190, (R)-tert-butyl (4′-(2-(3-(diethylamino)propylsulfonamido)-4-phenylbutanoyl)biphenyl-2-yl)methylcarbamate]	100 to 1000 nM
CCN(CC)CCCS(=O)(=O)N[C@H](CCc1ccccc1)C(=O)c1ccc(-c2ccccc2CN)cc1 [Compound 191, (R)-N-(1-(2′-(aminomethyl)biphenyl-4-yl)-1-oxo-4-phenylbutan-2-yl)-3-(diethylamino)propane-1-sulfonamide]	100 to 1000 nM
CCN(CC)CCS(=O)(=O)N[C@H](CCc1ccccc1)C(=O)c1ccc(-c2ccccc2CNC(=O)OC(C)(C)C)cc1 [Compound 194, (R)-tert-butyl (4′-(2-(2-(diethylamino)ethylsulfonamido)-4-phenylbutanoyl)biphenyl-2-yl)methylcarbamate]	100 to 1000 nM
CCN(CC)CCCS(=O)(=O)N[C@H](CCc1ccccc1)C(=O)NCc1ccc(-c2ccccc2NC(=O)NC)cc1 [Compound 200, (R)-2-(3-(diethylamino)propylsulfonamido)-N-((2′-(3-methylureido)biphenyl-4-yl)methyl)-4-phenylbutanamide]	100 to 1000 nM
C=C(C)C(=O)OCCNC(=O)NCc1ccccc1-c1ccc(C(=O)[C@@H](CCc2ccccc2)NS(=O)(=O)CCN(CC)CC)cc1 [Compound 202, (R)-2-(3-((4′-(2-(2-(diethylamino)ethylsulfonamido)-4-phenylbutanoyl)biphenyl-2-yl)methyl)ureido)ethyl methacrylate]	100 to 1000 nM
CCN(CC)CCS(=O)(=O)N[C@H](CCc1ccccc1)C(=O)c1ccc(-c2ccccc2CN)cc1 [Compound 203, (R)-N-(1-(2′-(aminomethyl)biphenyl-4-yl)-1-oxo-4-phenylbutan-2-yl)-2-(diethylamino)ethanesulfonamide]	100 to 1000 nM

Continued, values first:

Ki	SMILES
100 to 1000 nM	CCN(CC)CCCS(=O)(=O)N[C@H](COCc1ccccc1)C(=O)c1ccc(-c2ccccc2NC(=O)NC)cc1 [Compound 176, (R)-N-(3-(benzyloxy)-1-(2′-(3-methylureido)biphenyl-4-yl)-1-oxopropan-2-yl)-3-(diethylamino)propane-1-sulfonamide]
100 to 1000 nM	CCN(CC)CCCS(=O)(=O)N[C@H](COCc1ccccc1)C(=O)c1ccc(-c2ccccc2C(N)=O)cc1 [Compound 177, (R)-4′-[3-Benzyloxy-2-(3-diethylamino-propane-1-sulfonylamino)-propionyl]-biphenyl-2-carboxylic acid amide]
100 to 1000 nM	CCN(CC)CCCS(=O)(=O)N[C@H](COCc1ccccc1)C(=O)c1ccc(-c2ccccc2C#N)cc1 [Compound 178, (R)-N-(3-(benzyloxy)-1-(2′-cyanobiphenyl-4-yl)-1-oxopropan-2-yl)-3-(diethylamino)propane-1-sulfonamide]
100 to 1000 nM	CCN(CC)CCCS(=O)(=O)N[C@H](CCc1ccccc1)C(=O)NCc1ccc(-c2ccccc2C(=O)NC)cc1 [Compound 179, (R)-4′-{[2-(3-Diethylamino-propane-1-sulfonylamino)-4-phenyl-butyrylamino]-methyl}-biphenyl-2-carboxylic acid methylamide]
100 to 1000 nM	CCN(CC)CCCS(=O)(=O)N[C@H](CCc1ccccc1)C(=O)NCc1ccc(-c2ccccc2CN)cc1 [Compound 180, (R)-N-((2′-(aminomethyl)biphenyl-4-yl)methyl)-2-(3-(diethylamino)propylsulfonamido)-4-phenylbutanamide]
< 100 nM	CCN(CC)CCCS(=O)(=O)N[C@H](CCc1ccccc1)C(=O)c1ccc(-c2ccccc2CCNC(=O)NC)cc1 [Compound 185, (R)-3-(diethylamino)-N-(1-(2′-(2-(3-methylureido)ethyl)biphenyl-4-yl)-1-oxo-4-phenylbutan-2-yl)propane-1-sulfonamide]
< 100 nM	CCN(CC)CCCS(=O)(=O)N[C@H](CCc1ccccc1)C(=O)NCc1ccc(-c2ccccc2CNC(=O)NCCO)cc1 [Compound 188, (R)-2-(3-(diethylamino)propylsulfonamido)-N-((2′-((3-(2-hydroxyethyl)ureido)methyl)biphenyl-4-yl)methyl)-4-phenylbutanamide]
< 100 nM	CCN(CC)CCCS(=O)(=O)N[C@H](CCc1ccccc1)C(=O)NCc1ccc(-c2ccccc2C(N)=O)cc1 [Compound 189, (R)-4′-{[2-(3-Diethylamino-propane-1-sulfonylamino)-4-phenyl-butyrylamino]-methyl}-biphenyl-2-carboxylic acid amide]
< 100 nM	CCN(CC)CCCS(=O)(=O)N[C@H](CCc1ccccc1)C(=O)c1ccc(-c2ccccc2CNC(C)=O)cc1 [Compound 192, (R)-N-((4′-(2-(3-(diethylamino)propylsulfonamido)-4-phenylbutanoyl)biphenyl-2-yl)methyl)acetamide]
< 100 nM	CCNC(=O)NCc1ccccc1-c1ccc(CNC(=O)[C@@H](CCc2ccccc2)NS(=O)(=O)CCCN(CC)CC)cc1 [Compound 193, (R)-2-(3-(diethylamino)propylsulfonamido)-N-((2′-((3-ethylureido)methyl)biphenyl-4-yl)methyl)-4-phenylbutanamide]
< 100 nM	C=C(C)C(=O)OCCNC(=O)NCc1ccccc1-c1ccc(C(=O)[C@@H](CCc2ccccc2)NS(=O)(=O)CCCN(CC)CC)cc1 [Compound 195, (R)-2-(3-((4′-(2-(3-(diethylamino)propylsulfonamido)-4-phenylbutanoyl)biphenyl-2-yl)methyl)ureido)ethyl methacrylate]
< 100 nM	CCN(CC)CCCS(=O)(=O)N[C@H](CCc1ccccc1)C(=O)c1ccc(-c2ccccc2CNC(=O)NC)cc1 [Compound 196, (R)-3-(diethylamino)-N-(1-(2′-((3-methylureido)methyl)biphenyl-4-yl)-1-oxo-4-phenylbutan-2-yl)propane-1-sulfonamide]
< 100 nM	CCNC(=O)NCc1ccccc1-c1ccc(C(=O)[C@@H](CCc2ccccc2)NS(=O)(=O)CCCN(CC)CC)cc1 [Compound 197, (R)-3-(diethylamino)-N-(1-(2′-((3-ethylureido)methyl)biphenyl-4-yl)-1-oxo-4-phenylbutan-2-yl)propane-1-sulfonamide]
< 100 nM	CCN(CC)CCCS(=O)(=O)N[C@H](CCc1ccccc1)C(=O)c1ccc(-c2ccccc2CNC(=O)NCCO)cc1 [Compound 198, (R)-3-(diethylamino)-N-(1-(2′-((3-(2-hydroxyethyl)ureido)methyl)biphenyl-4-yl)-1-oxo-4-phenylbutan-2-yl)propane-1-sulfonamide]
< 100 nM	CCN(CC)CCS(=O)(=O)N[C@@H](COCc1ccccc1)C(=O)N1CCC2(CC1)CN(S(C)(=O)=O)c1ccccc12 [Compound 199, (S)-N-(3-(benzyloxy)-1-(1-(methylsulfonyl)spiro[indoline-3,4′-piperidine]-1′-yl)-1-oxopropan-2-yl)-2-(diethylamino)ethanesulfonamide]
< 100 nM	CCN(CC)CCS(=O)(=O)N[C@H](CCc1ccccc1)C(=O)c1ccc(-c2ccccc2CNC(=O)NCCO)cc1 [Compound 201, (R)-2-(diethylamino)-N-(1-(2′-((3-(2-hydroxyethyl)ureido)methyl)biphenyl-4-yl)-1-oxo-4-phenylbutan-2-yl)ethanesulfonamide]
